Results published in patent US20030059436A1, “Band 3 antigenic peptides, malaria polypeptides and uses thereof” (priority 2001, published 2003).
“Also recorded” adds a separate entry of the source. Ends that are not written are not given here. * marks the point of attachment. Biotin = O=C1N[C@H]2[C@H](CS[C@H]2CCCCC(=O)*)N1

How the values were obtained:
[1] = tested on: P. falciparum intraerythrocytic growth; experiment: Growth inhibition assay by 3H-hypoxanthine incorporation method; format: cell-based, Plasmodium falciparum; conditions: 400 μM peptide; vs no peptide control
Procedure: (§1) FIG. 2 depicts the inhibition of P. falciparum invasion into RBCs by human Band 3 peptides. […] Ectodomains are shown as boxes in the three models. (i) Overlapping 12 to 20-residue peptides shown in solid bars were prepared according to the putative ectodomain boundaries. (ii) Casey model (Fujinaga, J., et al., J Biol Chem 274:6626-6633, 1999). (iii) Reithmeier model (Popov, M., et al., J Biol Chem 272:18325-18332, 1997). (iv) Sherman model (Crandall, I., et al., Parasitology 108:257-267, 1994). […] Artemisinin (25 μM) and no peptide samples were positive and negative controls, respectively. FIG. 2C is a bar graph depicting of invasion inhibition assay by ^3H-hypoxanthine incorporation method. Effects of Band 3 peptides relative to the control sample (no peptide) are shown. Artemisinin (50 μM) and unrelated peptide derived from dematin were used as positive and negative control, respectively. FIG. 2D is a bar graph that depicts results of a growth inhibition assay by ^3H-hypoxanthine incorporation method. Effects of Band 3 peptides relative to the control sample (no peptide) are shown. In all inhibition assays, mean parasitemia from three experiments was calculated with standard error. DMSO background was corrected when necessary. Student's t test was used to compare with the control (no peptide). FIG. 2E is a table providing a summary of net charge and pI for Band 3 peptides.
(§2) To investigate the possible role of Band 3 as a host receptor in P. falciparum invasion into RBCs, we employed a peptide scanning strategy based on recent topology models of human erythroid Band 3 (FIG. 2A). Synthetic peptides were derived from the putative ectodomains of human RBC Band 3, and their ability to inhibit the P. falciparum (3D7 strain) invasion of human RBCs in culture was tested using both visual counting (Schlichtherle, M., et al., Methods in Malaria Research 2000) and ^3H-hypoxanthine incorporation (Chulay, J. D., et al., Exp Parasitol 55:138-146, 1983) methods. […] Inhibition by these four Band 3 peptides was concentration dependent (50, 200, 500, and 1000 μM peptides, data not shown).

[2] = tested on: P. falciparum (3D7 strain) merozoite proteins; experiment: Blot overlay assay, merozoite proteins; format: binding, Plasmodium falciparum; conditions: biotinylated peptides each 400 μM
Procedure: (§3) Naturally released P. falciparum (3D7 strain) merozoites isolated as described (Mrema, J. E., et al., Exp Parasitol 54:285-295, 1982) and human RBC ghosts prepared as described (Dodge, J. T., et al., Arch Biochem Biophys 100:119-130, 1963) were subjected to SDS-PAGE. Proteins transferred onto nitrocellulose membrane were blocked overnight with 10% milk, 2% BSA, TBST (0.05%) at 4° C. After washing (4×) in TBST, the blot was incubated with biotinylated Band 3 peptides (each 400 μM) in TBST (0.025%), 10 mM phosphate buffer (pH 8.0), 60 mM KCl for 4 h at RT. After extensive washing, the blot was incubated with neutravidin-linked horseradish peroxidase (1:21,000, Pierce Chemical Co., Rockford, Ill.) in TBST (0.05%) with 2% BSA for 5-6 h at RT. After washing the blot with TBST (5×) and TBS (2×), bound peptides were visualized by the ECL method (Pierce Chemical Co.).
(§4) A binding study was carried out between the synthetic Band 3 peptides and merozoite proteins to understand the mechanism by which Band 3 peptides 5B, 5C, and 6A inhibit the parasite invasion of RBCs. P. falciparum merozoites essentially free of contaminating RBC membrane components were isolated (FIG. 3A), and total merozoite proteins were separated by SDS-PAGE (FIG. 3B). […] This was confirmed by Western blot using anti-spectrin and anti-Band 3 antibodies (not shown). […] Approximate molecular masses of these merozoite proteins are 175, 150, 125, 52, 48, 42, and 35 kDa (shown by arrowheads).

human RBC ghost proteins = experiment: Blot overlay assay, RBC ghost proteins; format: binding; conditions: biotinylated peptides each 400 μM
Procedure: as §3, §4

GST-MSP138 = experiment: Solution-binding assay, GST-MSP138 on beads; parameters: species or system P. falciparum (FCB1 strain)
Description: MSP138 (SEQ ID NO:33), MSP142 (SEQ ID NO:34), and MSP119 (SEQ ID NO:35) genes were amplified from a P. falciparum (FCB1 strain) cDNA library (J. B. Dame) by PCR using the following primers: 5′-[…] (SEQ ID NO: 14, MSP138, sense, 3121-3133, Xhol), 5′-[…] (SEQ ID NO:15, MSP138, antisense, 4200-4193, NotI), 5′-[…] (SEQ ID NO:16, MSP142, sense, 4201-4218, XhoI), 5′-[…] (SEQ ID NO:17, MSP142, antisense, 5334-5321 NotI), 5′-[…]: (SEQ ID NO:18, MSP119, sense, 4993-5009 BamHI), 5′-[…] (SEQ ID NO:19, MSP119, antisense, 5334-5318, EcoRI). Similar cDNA libraries as well as CDNA pools are available to the public from MR4, ATCC (www.malaria.atcc.org).
Primers: 5′-[…] […] (SEQ ID NO:26, 6AB, antisense, 2640-2620, EcoRI).

[3] = tested on: P. falciparum (3D7 strain) invasion of human RBCs; experiment: Invasion inhibition assay by visual counting method; format: cell-based, Plasmodium falciparum; conditions: for inhibition of invasion, visual counting assay: 500 μM peptide, ring stage parasites in Giemsa-stained thin smears, vs other Band 3 peptides and no peptide control; for inhibition of the invasion of Plasmodium falciparum malaria parasite into human erythrocytes in vitro: peptide scanning experiment, compared to control sample
Procedure: as §1
Plasmodium parasite cultures were maintained at 37° C. as described by Klotz, F. W., et. al., J Exp Med 165:1713-1718, 1987. To determine infection in RBCs, rings were counted from RBCs in Geimsa-stained thin smears.
as §2

[4] = tested on: P. falciparum (3D7 strain) invasion of human RBCs; experiment: Invasion inhibition assay by 3H-hypoxanthine incorporation method; format: cell-based, Plasmodium falciparum; conditions: for inhibition of invasion, 3H-hypoxanthine uptake assay: 400 μM peptide, vs other Band 3 peptides, no peptide and unrelated peptide; for IC50: 3H-hypoxanthine incorporation method, mean of three experiments±standard error, read-out: IC50 (50% inhibition in the parasite invasion of RBCs)
Procedure: as §1, §2
The IC50 values for peptides 5A and 5B could not be estimated because a saturable peptide concentration could not be reached with a low DMSO (≦1%) concentration. It is noteworthy that our peptides 5A, 5B, 5C, and 6A were designed by randomly dividing the two ectodomains of Band 3, and thus these peptides may not necessarily represent Band 3 amino acid compositions having the best inhibitory property. […] These findings are consistent with the view that Band 3 functions as an important receptor in the parasite invasion of RBCs.

[5] = molecular target: P. falciparum (3D7 strain) merozoite proteins (approximate molecular masses 175, 150, 125, 52, 48, 42, and 35 kDa); experiment: cell-based or functional assay
[6] = molecular target: T1, SV40 large T-antigen fused to GAL4 AD (pGADT7 vector), two-hybrid control (UniProt P03070 86-708); experiment: yeast two-hybrid assay
T1 construct: Kit control; also called pGADT7-T
T1 sequence (P03070 86-708 limits assumed): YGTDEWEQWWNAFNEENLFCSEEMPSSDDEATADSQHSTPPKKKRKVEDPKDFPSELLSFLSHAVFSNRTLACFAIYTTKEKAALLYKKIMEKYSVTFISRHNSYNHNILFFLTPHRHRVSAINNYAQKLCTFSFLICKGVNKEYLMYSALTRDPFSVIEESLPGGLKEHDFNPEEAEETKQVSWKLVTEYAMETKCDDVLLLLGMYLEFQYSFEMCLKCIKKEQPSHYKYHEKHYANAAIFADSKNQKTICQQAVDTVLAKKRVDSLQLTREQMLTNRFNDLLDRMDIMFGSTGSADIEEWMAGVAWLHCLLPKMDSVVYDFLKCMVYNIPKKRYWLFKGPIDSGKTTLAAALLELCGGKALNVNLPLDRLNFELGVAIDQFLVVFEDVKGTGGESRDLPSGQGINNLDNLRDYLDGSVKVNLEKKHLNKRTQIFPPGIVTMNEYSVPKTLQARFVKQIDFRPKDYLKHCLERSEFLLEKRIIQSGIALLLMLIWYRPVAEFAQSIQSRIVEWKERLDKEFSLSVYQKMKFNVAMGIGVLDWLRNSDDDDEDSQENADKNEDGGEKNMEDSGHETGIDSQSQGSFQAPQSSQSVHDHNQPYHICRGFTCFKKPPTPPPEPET

For “2: Synthetic human Band 3 peptide, amino acid 477-491, N-terminal biotin tag (Biotin-SFCETNGLEYIVGRV; UniProt P02730 477-491, looked up, fragment) [Peptide 2]”, the “effect on intraerythrocytic growth of the parasite (3H-hypoxanthine uptake)” value (“effect on intraerythrocytic growth” for short) [1] was “mild reduction in 3H-hypoxanthine uptake”, the “binding to merozoite proteins, blot overlay” value (shortened to “binding to merozoite proteins”) [2] was “did not show significant binding” and the “binding to RBC ghost proteins, blot overlay” value (“binding to RBC ghost proteins” for short) (human RBC ghost proteins) was “non-specific bindings”.

In the case of “3A: Synthetic human Band 3 peptide, amino acid 538-557, N-terminal biotin tag (Biotin-SKLIKIFQDHPLQKTYNYNV; UniProt P02730 538-557, looked up, fragment) [Peptide 3A]”, the “binding to merozoite proteins” value [2] is reported as “did not show significant binding” and the “binding to RBC ghost proteins” value (human RBC ghost proteins) is reported as “non-specific bindings”.

“4A: Synthetic human Band 3 peptide, amino acid 623-642, N-terminal biotin tag (Biotin-FIQDTYTQKLSVPDGFKVSN; UniProt P02730 623-642, looked up, fragment) [Peptide 4A]” was tested, and the “binding to merozoite proteins” value [2] was “did not show significant binding” and the “binding to RBC ghost proteins” value (human RBC ghost proteins) was “non-specific bindings”.

For “5BC: Recombinant human Band 3 peptide, amino acid 731-761, expressed as GST or GAL4 DNA-BD fusion (SVTHANALTVMGKASTPGAAAQIQEVKEQRI; also: expressed as GST or GAL4 DNA-BD fusion) [Peptide 5BC]”, the “binding to GST-MSP138 on beads” value (GST-MSP138; 32P-labeled 5BC 21, 42, 84, 168 μM) was “concentration-dependent manner” and the Kd (GST-MSP138; 32P-labeled peptide, pH 7.4, 25° C., 3.5 h, C-terminal truncated GST-MSP138) was 67 µM.

“DRILLLFKPPKYHPDVPYVK [Peptide 6A, Synthetic human Band 3 peptide, amino acid 807-826]” was tested, and the “inhibition of invasion, visual counting assay” value [3] was “significant levels of inhibition of invasion”, the “inhibition of the invasion of Plasmodium falciparum malaria parasite into human erythrocytes in vitro” value (from here on “inhibition of the invasion … in vitro”) ([3]; listed as B36A) was “inhibited the invasion; also recorded: highest inhibition” and the “inhibition of invasion, 3H-hypoxanthine uptake assay” value [4] was “strong inhibition”. The IC50 [4] was 316 ± 45 µM, the “effect on intraerythrocytic growth” value [1] was “did not affect the intraerythrocytic growth of the parasite” and the “binding to merozoite proteins” value [2] was “specifically bind”.

For “GKASTPGAAAQIQEVKEQRI [Peptide 5C, Synthetic human Band 3 peptide, amino acid 742-761]”, the “inhibition of invasion, visual counting assay” value [3] was “significant levels of inhibition of invasion”, the “inhibition of the invasion … in vitro” value ([3]; listed as B35C) was “inhibited the invasion; also recorded: highest inhibition” and the “inhibition of invasion, 3H-hypoxanthine uptake assay” value [4] was “moderate but significant levels of inhibition of invasion”. The IC50 [4] was 591 ± 131 µM, the “effect on intraerythrocytic growth” value [1] was “did not affect the intraerythrocytic growth of the parasite” and the “binding to merozoite proteins” value [2] was “specifically bind”.

GMPWLSATTVRSVTHANALT [Peptide 5A] was tested, and the “inhibition of invasion, visual counting assay” value [3] was “significant levels of inhibition of invasion”, the “inhibition of the invasion … in vitro” value [3] was “inhibited the invasion” and the “effect on intraerythrocytic growth” value [1] was “mild reduction in 3H-hypoxanthine uptake”.

For “Human Band 3 peptide 5C (amino acid 742-761), synthetic with N-terminal biotin tag”, the IC50 values (50% inhibition in the parasite invasion of RBCs), 3H-hypoxanthine incorporation method [5] was 591 µM.

“Human Band 3 peptide 6A (amino acid 807-826), synthetic with N-terminal biotin tag” was tested, and the IC50 values (50% inhibition in the parasite invasion of RBCs), 3H-hypoxanthine incorporation method [5] was 316 µM.

In the case of “Peptide 1: Synthetic human Band 3 peptide, amino acid 424-435, N-terminal biotin tag (Biotin-GGLLGEKTRNQM; UniProt P02730 424-435, looked up, fragment)”, the “inhibition of invasion, 3H-hypoxanthine uptake assay” value [4] is reported as “moderate but significant levels of inhibition of invasion” and the “effect on intraerythrocytic growth” value [1] is reported as “mild reduction in 3H-hypoxanthine uptake”.

In the case of “SVTHANALTVMGKASTPGAA [Peptide 5B, Synthetic human Band 3 peptide, amino acid 731-750]”, the “inhibition of invasion, visual counting assay” value [3] is reported as “significant levels of inhibition of invasion”, the “inhibition of the invasion … in vitro” value [3] is reported as “inhibited the invasion” and the “inhibition of invasion, 3H-hypoxanthine uptake assay” value [4] is reported as “moderate but significant levels of inhibition of invasion”. For the same molecule, the “effect on intraerythrocytic growth” value [1] was “did not affect the intraerythrocytic growth of the parasite”.

B1: GAL4 DNA-BD fusion of Band 3 peptide 5BC (amino acids 731-761) in pGBKT7 (other)
peptide: SVTHANALTVMGKASTPGAAAQIQEVKEQRI
modifications: not fully specified (N-terminus); also: GAL4 DNA-BD fusion in pGBKT7, fused part not given here
B1: no binding [6].

B2: GAL4 DNA-BD fusion of Band 3 peptide 6AB (amino acids 807-842) in pGBKT7 (other)
peptide: DRILLLFKPPKYHPDVPYVKRVKTWRMHLFTGIQII
modifications: not fully specified (N-terminus); also: GAL4 DNA-BD fusion in pGBKT7, fused part not given here
B2: no binding [6].

B3: GAL4 DNA-BD fusion of Band 3 peptide 5ABC (amino acids 720-761) in pGBKT7 (other)
peptide: GMPWLSATTVRSVTHANALTVMGKASTPGAAAQIQEVKEQRI
modifications: not fully specified (N-terminus); also: GAL4 DNA-BD fusion in pGBKT7, fused part not given here
notes: also called BD-5ABC; pGBKT7-5ABC
B3: no binding [6].
